Each structure is given as a SMILES string.

The subject of series [1] is BT474 breast cancer cells. In words: WST-1 colorimetric cell proliferation assay, BT474. The class given is cell-based, human. To be noted: WST-1, concentration-dependent cell killing.
Series [2] relates to HER2. Put plainly: Western blot of HER2 levels in BT474 cells. The class given is cell-based, human. To be noted: compound 8 1 μM, 6, 12, 24 h, 17-AAG 0.178 μM. (In general: A western blot detects proteins with antibodies after separation by electrophoresis.)
The test system of series [3] is Hsp70. Put plainly: Western blot of Hsp70 levels in BT474 and SKBR3 cells. The format is cell-based, human. To be noted: 17-AAG 0.178 μM, compound 8 1 or 5 μM.
For series [4] the following is noted: cited from earlier work.
Series [5] concerns cancer patients. To be noted: cited from earlier work.

As to `C=CCNC1=C2C[C@@H](C)C[C@H](OC)[C@H](O)[C@@H](C)/C=C(\C)[C@H](OC(N)=O)[C@@H](OC)/C=C\C=C(/C)C(=O)NC(=CC1=O)C2=O` [Compound 17-AAG, 17-Allylamino-17-demethoxygeldanamycin], the “cell killing selectivity, BT474 versus SKBR3 and MCF-12F” value in series [1] was “significantly more potent in killing BT474 cells than SKBR3 and normal cells”. In addition, the “HER2 levels in BT474 cells” value in series [2] is “time-dependent decrease in HER2 levels”. The “Hsp70 levels” value in series [3] is “significant increase in Hsp70 levels”. In addition, the “solubility in aqueous solution” value in series [4] was “low solubility in aqueous solution”. Further, the “most common dose-limiting side effects” value in series [5] is “anorexia, nausea, diarrhea, hepatoxicity, fatigue, thrombocytopenia, and anemia”.

The values are drawn from PMC3282108 (ACS Chemical Biology, 2008).
